Experiment [1] concerns the target T1, ARFA (ARFB1b), residues 18-192 (Arabidopsis thaliana, UniProt Q9LFJ7).
T1 construct: N-terminally truncated (residues 18-192), 6xHis-tagged (pET30a), expressed in E. coli BL21(DE3), Ni-NTA purified
As to the kind of experiment: tryptophan fluorescence nucleotide exchange (ex […] nm, em […] nm). The settings on record: 1 uM GDP-loaded ARF, 66 uM GTPgammaS, 50 nM SEC7 domain of BIG5 (residues 587-791), 10 mM MgCl2, pH 7.5, 37 C. It counts as binding.

Experiment [2] has as its target T2, ARF1 (ARFA1c), residues 18-181 (Arabidopsis thaliana, UniProt P36397).
T2 construct: N-terminally truncated (residues 18-181), 6xHis-tagged (pET30a), expressed in E. coli BL21(DE3), Ni-NTA purified
Described as above. It counts as binding. As to conditions: 1 uM GDP-loaded ARF, 66 uM GTPgammaS, 50 nM SEC7 domain of BIG5 (residues 587-791), 10 mM MgCl2, pH 7.5, 37 C.

The structures appear in SMILES notation.

T2 sequence (P36397 18-181): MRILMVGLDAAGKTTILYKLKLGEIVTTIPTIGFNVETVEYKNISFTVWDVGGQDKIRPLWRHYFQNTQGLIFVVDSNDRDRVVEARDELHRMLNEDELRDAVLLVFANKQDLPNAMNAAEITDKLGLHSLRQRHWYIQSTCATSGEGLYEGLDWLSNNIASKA
T1 sequence (Q9LFJ7 18-192): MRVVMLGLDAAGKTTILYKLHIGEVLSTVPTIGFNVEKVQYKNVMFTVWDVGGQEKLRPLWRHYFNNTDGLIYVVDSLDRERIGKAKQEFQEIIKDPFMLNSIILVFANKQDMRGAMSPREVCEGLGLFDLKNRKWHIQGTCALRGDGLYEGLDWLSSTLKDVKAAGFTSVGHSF

In the case of `Nc1nc2c(ncn2[C@@H]2O[C@H](COP(=O)(O)OP(=O)(O)OP(O)(O)=S)[C@@H](O)[C@H]2O)c(=O)[nH]1` [GTPγS], the “tryptophan fluorescence nucleotide exchange (ex 298 nm, em 340 nm)” value in experiment [1] is “The SEC7 domain of BIG5 catalyzed GDP-GTP exchange on ARF1(wt), ARFA(wt) and ARFA-Q71L”; in experiment [2], “The SEC7 domain of BIG5 catalyzed GDP-GTP exchange on ARF1(wt), ARFA(wt) and ARFA-Q71L”.
